The values that follow come from publication PMC10484922, “Discovery of a selective and biologically active low-molecular weight antagonist of human interleukin-1β” (Nature Communications, 2023).

Values joined by “and” are separate entries in the source; they are usually repeats but may differ in a detail not shown here. Identical values can stand only once. Like-named read-outs stand apart in the source and are kept apart here. Bounds are passed on as bounds.

Test [1] has as its target T1, IL-1β (Homo sapiens, UniProt P01584). In words: 19F-reporter displacement assay with (S)-1 as probe. The test is classed as binding. On the set-up: Mature hIL-1β was expressed in Escherichia coli; made in house; host or cells: Escherichia coli BL21 (DE3), pET17b. How it is done: Protein and reporter concentrations were 10 and 40 μM, respectively. To account for changes in sample homogeneity, samples contained 1-(2,2,2-trifluoroacetyl)piperidine-4-carboxylic acid as an internal reference for scaling signal intensities. Three concentrations of the competitor were typically measured, and the related displacement of the probe was converted into Ki-values according to Dalvit and Vulpetti[17]. […] This process was automated with FRPipe, an in-house developed Python script (https://github.com/Novartis/FRPipe) that allows for streamlined analysis of such experiments. […] For visual inspection, an overview containing relevant ^19F peaks, fitting curves, and proton spectra was plotted.
Supplementary Figure 2. 13C-NMR and 19F-NMR reporter assays to monitor early structure activity relationships of analogues of 1. a, b Early structure activity relationships monitored by protein-observed and c-f 19F-NMR reporter assays, exemplified for compound 8. a 1H-13C-HMQC spectra of hIL-1b (50 µM) were acquired in the presence (red) and absence (blue) of 500 µM compound and rows were extracted at the w1-frequency of the peak corresponding to Leu60 Cd1H3. b The degree of protein binding was estimated from the ratio I/I0, where I and I0 correspond to the signal in the presence and absence of compound, respectively. c For the assessment of the KI-values, the signal intensity of a reporter molecule (S)-1 was monitored in 19F-transverse relaxation experiments run in the absence and presence of increasing amounts of compound. d All intensities were scaled to the intensity of an internal standard (all signals in panel c and d are shifted on the X-axis for clarity). e KI-values were retrieved from theoretical binding curves calculated for each compound concentration8. f One-dimensional 1H-NMR spectra were recorded for each assay mixture to assess the structural integrity and solubility of the compound in the sample.
(1 picture or pasted object on this page, not shown here)

The target in test [2] is T1, IL-1β. The test is described as follows: SPR binding of compounds to immobilized hIL-1β. The arrangement: Mature hIL-1β was expressed in Escherichia coli; made in house; host or cells: Escherichia coli BL21 (DE3), pET17b. How it is done:
All SPR experiments were performed with an SPR-32 instrument (Bruker Daltonics SPR, Hamburg, Germany). SPR chips were from XanTec bioanalytics GmbH (Düsseldorf, Germany).
C-terminally avi-tagged hIL-1β protein was immobilized onto a SAHC200M chip with a neutravidin-coated surface. Immobilization was performed with a protein injection of 0.02 mg/ml IL-1β diluted in PBS pH 7.5 (Gibco 70011-036, 10×), 0.05% Tween-20 for 5 min at 10 μl/min. The running buffer for binding studies of compounds was PBS pH 7.4, 0.05% Tween-20, and 2% DMSO. For the correction of small DMSO variations between samples, injections of 6 solvent samples ranging from 1% to 3% DMSO were run. Compound measurements were performed in MICK mode (multiple injection cycles kinetic) with a dose–response of 10 concentrations. Dissociation constants for compounds (KD) were obtained by determining steady-state fit that followed the 1:1 Langmuir model.
Data analysis was performed with the Sierra Analyzer 3.4.0 software from Bruker. Signal intensities were corrected for nonspecific binding to the surface by subtracting intensities from the reference surface from those of the hIL-1β surfaces (first reference subtraction) and by subtracting the buffer injection (second reference subtraction). KD values were carried out by determining a reporting point close to the end of the injection, used for steady-state fit, in addition to a kinetic fit delivering kon- and koff-values; both fitting models followed the 1:1 Langmuir equation.
Supplementary Figure 3. De termination of binding af fi nit ie s for se l ec ted ana l ogues of 1 by SPR. a - d Gr ap hs of exemplary experimen ts are given , where the sat urat ion of hI L-1b immobil ized on a chip was monitored at various concentrations of compound 3, 12, 10, and 11, respectively. Th e saturati on reached at equ ilibri um (insert) was plo tt ed versus the admini stered concentration and the equ ilibri um bin ding constant was derived from a non-li near lea st square fitting routine. e equ ilibri um and f kinetic bin ding of (S)-2 to IL-1b (kon = 1. 15 x 105 M-1 s-1 and koff = 0. 12 s-1).

Test [3] deals with T1, IL-1β. The test is described as follows: TR-FRET IL-1β/hIL-1R1 receptor displacement assay. As to conditions: read-out: TR-FRET IL-1β IC50. The test is classed as biochemical. How it is done:
After 1 h incubation at room temperature, hIL-1R1 (1–332; Alexa 647 labeled; 50 nM final concentration) and anti-His-Europium W1024 (Perkin Elmer; Cat.No. AD0401, 1 nM final concentration) were added to a final volume of 10 μl per well. […] All experiments were run in triplicates.

In another test the target is T2, IL-1α (Homo sapiens, UniProt P01583).
T2 sequence (P01583 113-271): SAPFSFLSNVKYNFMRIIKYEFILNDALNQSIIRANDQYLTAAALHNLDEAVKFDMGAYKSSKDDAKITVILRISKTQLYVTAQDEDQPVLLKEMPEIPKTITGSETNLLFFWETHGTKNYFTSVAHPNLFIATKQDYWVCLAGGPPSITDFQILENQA
In words: TR-FRET IL-1α/hIL-1R1 receptor displacement assay. The test is classed as biochemical. As to conditions: read-out: TR-FRET IL-1α IC50. How it is done: After 1 h incubation at room temperature, hIL-1R1 (1–332; Alexa 647 labeled; 50 nM final concentration) and anti-His-Europium W1024 (Perkin Elmer; Cat.No. AD0401, 1 nM final concentration) were added to a final volume of 10 μl per well. After 1 h of incubation at room temperature, time-resolved fluorescence was measured at λexc = 320 ± 20 nm, λem = 620 ± 25 nm/665 ± 25 nm using a Pherastar FSX plate reader. All experiments were run in triplicates. The data provided a typical saturation-binding curve, and the IC50 values were calculated by fitting the results to the Hill equation using Prism 7.0 and the in-house software Helios.

Test [4] has as its target T1, IL-1β. In words: protein-observed 1H-13C-HMQC NMR binding (I/Io of Leu60 Cδ1H3). The arrangement: Mature hIL-1β was expressed in Escherichia coli; made in house; host or cells: Escherichia coli BL21 (DE3), pET17b. As to conditions: hIL-1β 50 µM, 500 µM compound. How it is done:
^1H–^13C- and ^1H–^15N-HMQC spectra were recorded on Bruker AVANCE 600 MHz and 800 MHz spectrometers equipped with TXI-cryocooled probeheads. In ligand binding experiments, protein concentrations were typically 50 μM in PBS, pH 7.4. Backbone assignments of hIL-1β in the ligand-bound state and unliganded state were obtained by a combination of a 3D triple resonance experiment HNCACB and a ^15N-edited NOESY spectrum, which were processed using TOPSPIN 3.2 and analyzed using CcpNmr AnalysisAssign 3.1.0[46]. ^15N-CEST experiments were run at weak B1 radiofrequency fields of 25 and 12.5 Hz on a Bruker AVANCE 800 MHz spectrometer with 113 increments and a total sweep width of 28 ppm in the pseudo-3D dimension. Peak intensities were extracted by fitting pseudo-Voigt lineshape models using peakipy (https://github.com/j-brady/peakipy). Fitted peak intensities were subsequently used to generate CEST profiles, and exchange parameters were fitted using ChemEx (https://github.com/gbouvignies/ChemEx).
Supplementary Figure 2. 13C-NMR and 19F-NMR reporter assays to monitor early
13C-HMQC spectra of hIL-1b (50 µM) were acquired in the presence (red) and absence (blue) of 500
µM compound and rows were extracted at the w1-frequency of the peak corresponding to Leu60 […]

In a further test the target is T3, hIL-1R1 (Homo sapiens, UniProt P14778).
T3 construct: the cell suspension containing the mature Interleukin-1R1(21–337)-His6 was centrifuged; made in house; host or cells: HEK-ExpiGnti- cells (transient, secreted)
T3 sequence (P14778 21-337): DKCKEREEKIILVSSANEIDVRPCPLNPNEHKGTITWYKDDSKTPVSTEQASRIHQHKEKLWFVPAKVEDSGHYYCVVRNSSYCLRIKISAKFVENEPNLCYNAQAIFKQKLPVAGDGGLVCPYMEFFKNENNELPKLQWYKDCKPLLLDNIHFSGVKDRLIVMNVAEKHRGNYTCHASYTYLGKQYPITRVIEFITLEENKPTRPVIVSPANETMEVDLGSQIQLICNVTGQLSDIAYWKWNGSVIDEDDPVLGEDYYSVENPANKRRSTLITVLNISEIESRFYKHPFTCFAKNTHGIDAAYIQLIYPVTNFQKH
In words: SPR binding of IL-1β and V47A variant to immobilized IL-1R1. As to conditions: source data, read-out: SPR binding to IL-1R1, individual experiments (Exp1-3). How it is done: The receptor IL-1R1 was covalently immobilized to the chip surface of a CMD50L sensor by amine coupling. The coupling reagents (EDC/NHS and ethanolamine) were from Bruker. 1× PBS pH 7.5 (Gibco 70011-036, 10×), 0.05 % Tween-20 was used as running buffer. The chip surface was activated with a 3 min injection of EDC/NHS (200 mM 1-ethyl-3-(3-dimethylaminopropyl)-carbodiimide hydrochloride, 25 mM N-hydroxysuccinimide), followed by the protein injection of 0.02 mg/ml IL-1R1 diluted in 10 mM sodium acetate pH 5.0 for 3 min at 10 μl/min. The remaining active succinimides on the surface were deactivated by an injection of 1 M ethanolamine hydrochloride pH 8.5 over 3 min at 10 μl/min.
The injection of the protein dilution series was performed with 8 concentrations in SICK mode (single injection cycle kinetic) with a flow rate of 40 μl/min and 2 reference injections with buffer before and after the protein injection.
Data analysis was performed with the Sierra Analyzer 3.4.0 software from Bruker. Signal intensities were corrected for nonspecific binding to the surface by subtracting intensities from the reference surface from those of the hIL-1β surfaces (first reference subtraction) and by subtracting the buffer injection (second reference subtraction). […]
as se ss ed by SPR. Bindi ng of hI L-1b (a, b) and hI L-1bV47A (c, d) to hI L-1R1 monitored by SPR. […]

T1 sequence (P01584 117-269): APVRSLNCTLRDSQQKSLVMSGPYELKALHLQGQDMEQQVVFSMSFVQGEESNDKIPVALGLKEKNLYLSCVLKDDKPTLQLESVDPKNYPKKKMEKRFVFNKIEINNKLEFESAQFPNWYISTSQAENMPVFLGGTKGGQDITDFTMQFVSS

Take `Cc1ccc(O)c(C2(c3cn[nH]c3)C(=O)Nc3cc(C(F)(F)F)ccc32)c1` (stereo not shown) [Compound 12]: the Ki on IL-1β [1] (protein 10 μM, reporter (S)-1 40 μM, read-out: 19F-reporter Ki) is 90 ± 41 µM; on IL-1β [1] (source data, read-out: 19F-reporter, individual experiments (Exp1-58)), 119 µM and 61 µM. Moreover, the Kd is 138 µM at IL-1β [2] (source data, read-out: SPR Kd, Mean); 145 µM and 130 µM at IL-1β [2] (source data, read-out: SPR Kd, individual experiments (Exp1-5)); 138 ± 11 µM on IL-1β [2] (steady-state fit, 1:1 Langmuir, read-out: SPR KD). Also, the IC50 on IL-1β [3] and on IL-1α was over 200 µM throughout. Moreover, the “I/Io (ratio of peak intensities of Leu60 Cδ1H3 in 1H-13C-HMQC spectra in presence and absence of ligand)” value at IL-1β [4] was <0.1 (N = 1).
As for “hIL-1β: proteolytically processed mature human interleukin-1β, analyte in SPR on IL-1R1”, the Kd in the test with hIL-1R1 (listed as wt IL-1beta) was 0.0039 µM and 0.0024 µM.
Take “hIL-1β^V47A: hIL-1β variant with Val47 replaced by Ala”: the Kd with hIL-1R1 (listed as IL-1beta V47A) was 0.0034 µM and 0.0043 µM and 0.004 µM.
